Experiments:
CDK2/Cyclin E1 = biological target: T1, CDK2/Cyclin E1 (Homo sapiens, UniProt P24941); assay: NanoBRET cellular target engagement assay, CDK2/Cyclin E1 in HEK-293 cells; type: cell-based; settings: HEK-293 cells transfected with CDK2-NanoLuc and CCNE1; tracer K10 0.5 μM; 2 hrs
T1 construct: NV2641; host or cells: HEK-293
Protocol: (§1) In the assay, HEK-293 cells were cultured to appropriate confluence before being transiently transfected with a mix of CDK2-NanoLuc® Fusion Vector (Promega, NV2781) and CCNE1 expression vector (Promega, NV2641) for CDK2 NanoBRET assays, or CDK1-NanoLuc® Fusion Vector (Promega, NV2701) and CCNB1 expression vector (Promega, NV2601) for CDK1 NanoBRET assay, by using lipid: DNA complexes formed with FuGENE HD transfection agent (Promega, E2311). The transfected cells were cultured overnight in 1% FBS Opti-MEM media to allow the expression to fully occur. Once the expression fully occurred, varying concentrations of the test compounds were added to the cells, before a cell-permeable, fluorescent tracer (tracer K10 from Promega, N2840) was added to achieve final tracer concentration of 0.5 μM. After the addition of Nano-Glo substrate (part of a kit, Promega, N2840) and Extracellular NanoLuc inhibitor (part of a kit, Promega, N2840) 2 hrs after tracer addition, the cellular engagement of the tracer and the competition with testing compounds to the target protein was assessed based on the resulting bioluminescence resonance energy transfer (BRET) signal. BRET ratio was generated by dividing the acceptor emission signal (610 nm) by the donor emission signal (450 nm) for each sample. […] All IC50 curves were calculated using a 4 parameter logistic nonlinear regression model.

CDK1/Cyclin B = biological target: T2, CDK1/Cyclin B (Homo sapiens, UniProt P06493); assay: NanoBRET cellular target engagement assay, CDK1/Cyclin B in HEK-293 cells; type: cell-based; settings: HEK-293 cells transfected with CDK1-NanoLuc and CCNB1; tracer K10 0.5 μM; 2 hrs
T2 construct: NV2601; host or cells: HEK-293
T2 sequence (P06493 whole entry): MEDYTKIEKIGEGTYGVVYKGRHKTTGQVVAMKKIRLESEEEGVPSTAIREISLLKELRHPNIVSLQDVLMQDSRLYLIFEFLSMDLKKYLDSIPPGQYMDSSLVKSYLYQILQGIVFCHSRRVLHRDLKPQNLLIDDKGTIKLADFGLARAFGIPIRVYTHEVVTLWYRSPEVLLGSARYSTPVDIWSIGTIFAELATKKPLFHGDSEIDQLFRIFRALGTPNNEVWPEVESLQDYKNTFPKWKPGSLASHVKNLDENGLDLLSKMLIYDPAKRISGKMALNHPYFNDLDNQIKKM
T2 sequence (P14635 whole entry partner): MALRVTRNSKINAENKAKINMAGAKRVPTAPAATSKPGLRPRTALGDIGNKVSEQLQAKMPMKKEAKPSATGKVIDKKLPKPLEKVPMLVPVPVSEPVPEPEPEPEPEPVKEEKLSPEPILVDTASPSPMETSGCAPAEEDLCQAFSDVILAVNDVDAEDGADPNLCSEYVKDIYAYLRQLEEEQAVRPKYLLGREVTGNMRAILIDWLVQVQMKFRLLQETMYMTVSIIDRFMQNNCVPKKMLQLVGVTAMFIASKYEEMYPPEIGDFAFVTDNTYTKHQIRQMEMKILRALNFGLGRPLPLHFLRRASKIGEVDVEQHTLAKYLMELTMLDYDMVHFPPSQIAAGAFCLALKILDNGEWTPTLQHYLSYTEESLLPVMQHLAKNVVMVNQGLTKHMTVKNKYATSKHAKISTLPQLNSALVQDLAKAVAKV
Protocol: as §1

SMILES	IC50 (CDK2/Cyclin E1)	IC50 (CDK1/Cyclin B)
FC(F)Oc1cc(Nc2cnc3ccn(CC4CCNCC4)c3n2)n[nH]1 [Example 7, N-(5-(difluoromethoxy)-1H-pyrazol-3-yl)-5-(piperidin-4-ylmethyl)-5H-pyrrolo[2,3-b]pyrazin-3-amine]	1130 nM	> 10000 nM
CN1CCC(Cn2ccc3ncc(Nc4cc(OC(F)F)[nH]n4)nc32)CC1 [Example 8, N-(5-(difluoromethoxy)-1H-pyrazol-3-yl)-5-((1-methylpiperidin-4-yl)methyl)-5H-pyrrolo[2,3-b]pyrazin-3-amine]	162 nM	> 10000 nM
FC(F)Oc1cc(Nc2cnc3ccn(C[C@H]4CCCNC4)c3n2)n[nH]1 [Example 9, (S)—N-(5-(difluoromethoxy)-1H-pyrazol-3-yl)-5-(piperidin-3-ylmethyl)-5H-pyrrolo[2,3-b]pyrazin-3-amine]	4.9 nM	1730 nM
CN1CCC[C@H](Cn2ccc3ncc(Nc4cc(OC(F)F)[nH]n4)nc32)C1 [Example 10, (S)—N-(5-(difluoromethoxy)-1H-pyrazol-3-yl)-5-((1-methylpiperidin-3-yl)methyl)-5H-pyrrolo[2,3-b]pyrazin-3-amine]	6 nM	3210 nM
C[C@@H](C1CCOCC1)n1ccc2ncc(Nc3cc(OC(F)F)[nH]n3)nc21 [Example 11, (S)—N-(5-(difluoromethoxy)-1H-pyrazol-3-yl)-5-(1-(tetrahydro-2H-pyran-4-yl)ethyl)-5H-pyrrolo[2,3-b]pyrazin-3-amine]	1.2 nM	71.7 nM
O[C@H]1CC[C@H](n2ccc3ncc(Nc4cc(OC(F)F)[nH]n4)nc32)CC1 [Example 12, (1r,4r)-4-(3-((5-(difluoromethoxy)-1H-pyrazol-3-yl)amino)-5H-pyrrolo[2,3-b]pyrazin-5-yl)cyclohexan-1-ol]	1.1 nM	347 nM
FC(F)Oc1cc(Nc2cnc3ccn(Cc4cccnn4)c3n2)n[nH]1 [Example 13, N-(5-(difluoromethoxy)-1H-pyrazol-3-yl)-5-(pyridazin-3-ylmethyl)-5H-pyrrolo[2,3-b]pyrazin-3-amine]	7.4 nM	898 nM
OC1(Cn2ccc3ncc(Nc4cc(OC(F)F)[nH]n4)nc32)CCOCC1 [Example 14, 4-((3-((5-(difluoromethoxy)-1H-pyrazol-3-yl)amino)-5H-pyrrolo[2,3-b]pyrazin-5-yl)methyl)tetrahydro-2H-pyran-4-ol]	137 nM	325 nM
C[C@@H](CO)Cn1ccc2ncc(Nc3cc(OC(F)F)[nH]n3)nc21 [Example 15, (R)-3-(3-((5-(difluoromethoxy)-1H-pyrazol-3-yl)amino)-5H-pyrrolo[2,3-b]pyrazin-5-yl)-2-methylpropan-1-ol]	8.8 nM	7460 nM

Now from value to compound:

IC50 (CDK2/Cyclin E1)	IC50 (CDK1/Cyclin B)	SMILES
5.8 nM	624 nM	c1cncc(Cn2ccc3ncc(Nc4cc([C@@H]5CCOC5)[nH]n4)nc32)c1 (single isomer, unassigned) [Example 17, (S)-5-(pyridin-3-ylmethyl)-N-(5-(tetrahydrofuran-3-yl)-1H-pyrazol-3-yl)-5H-pyrrolo[2,3-b]pyrazin-3-amine or (R)-5-(pyridin-3-ylmethyl)-N-(5-(tetrahydrofuran-3-yl)-1H-pyrazol-3-yl)-5H-pyrrolo[2,3-b]pyrazin-3-amine]
128 nM	2780 nM	c1cnnc(Cn2ccc3ncc(Nc4cc([C@@H]5CCOC5)[nH]n4)nc32)c1 (single isomer, unassigned) [Example 25, (S)-5-(pyridazin-3-ylmethyl)-N-(5-(tetrahydrofuran-3-yl)-1H-pyrazol-3-yl)-5H-pyrrolo[2,3-b]pyrazin-3-amine or (R)-5-(pyridazin-3-ylmethyl)-N-(5-(tetrahydrofuran-3-yl)-1H-pyrazol-3-yl)-5H-pyrrolo[2,3-b]pyrazin-3-amine]
10.9 nM	291 nM	c1cncc(Cn2ccc3ncc(Nc4cc(C5COC5)[nH]n4)nc32)c1 [Example 16, N-(5-(oxetan-3-yl)-1H-pyrazol-3-yl)-5-(pyridin-3-ylmethyl)-5H-pyrrolo[2,3-b]pyrazin-3-amine]
10.3 nM	660 nM	COc1cc(Nc2cnc3ccn(Cc4cccnc4)c3n2)n[nH]1 [Example 18, N-(5-methoxy-1H-pyrazol-3-yl)-5-(pyridin-3-ylmethyl)-5H-pyrrolo[2,3-b]pyrazin-3-amine]
35.7 nM	4450 nM	Cc1cc(Nc2cnc3ccn(Cc4cccnc4)c3n2)n[nH]1 [Example 19, N-(5-methyl-1H-pyrazol-3-yl)-5-(pyridin-3-ylmethyl)-5H-pyrrolo[2,3-b]pyrazin-3-amine]
112 nM	7560 nM	N#Cc1cc(Nc2cnc3ccn(Cc4cccnc4)c3n2)n[nH]1 [Example 20, 3-((5-(pyridin-3-ylmethyl)-5H-pyrrolo[2,3-b]pyrazin-3-yl)amino)-1H-pyrazole-5-carbonitrile]
1630 nM	> 10000 nM	COc1cc(Nc2cnc3ccn(C[C@H]4CCCN(C)C4)c3n2)n[nH]1 [Example 21, (S)—N-(5-methoxy-1H-pyrazol-3-yl)-5-((1-methylpiperidin-3-yl)methyl)-5H-pyrrolo[2,3-b]pyrazin-3-amine]
6.9 nM	207 nM	COc1cc(Nc2cnc3ccn(Cc4cccnn4)c3n2)n[nH]1 [Example 22, N-(5-methoxy-1H-pyrazol-3-yl)-5-(pyridazin-3-ylmethyl)-5H-pyrrolo[2,3-b]pyrazin-3-amine]
110 nM	1300 nM	c1cnnc(Cn2ccc3ncc(Nc4cc(C5COC5)[nH]n4)nc32)c1 [Example 23, N-(5-(oxetan-3-yl)-1H-pyrazol-3-yl)-5-(pyridazin-3-ylmethyl)-5H-pyrrolo[2,3-b]pyrazin-3-amine]
105 nM	3820 nM	Cc1cc(Nc2cnc3ccn(Cc4cccnn4)c3n2)n[nH]1 [Example 24, N-(5-methyl-1H-pyrazol-3-yl)-5-(pyridazin-3-ylmethyl)-5H-pyrrolo[2,3-b]pyrazin-3-amine]
16.9 nM	3580 nM	FC(F)Oc1cc(Nc2cnc3ccn(C[C@@H]4CCCNC4)c3n2)n[nH]1 [Example 27, (R)—N-(5-(difluoromethoxy)-1H-pyrazol-3-yl)-5-(piperidin-3-ylmethyl)-5H-pyrrolo[2,3-b]pyrazin-3-amine]
112 nM	8310 nM	CN1CCC[C@@H](Cn2ccc3ncc(Nc4cc(OC(F)F)[nH]n4)nc32)C1 [Example 28, (R)—N-(5-(difluoromethoxy)-1H-pyrazol-3-yl)-5-((1-methylpiperidin-3-yl)methyl)-5H-pyrrolo[2,3-b]pyrazin-3-amine]
